For orientation: IC50 means the point on the concentration scale where inhibition reaches its midpoint.

From US9139587B2, “N1-pyrazolospiroketone acetyl-CoA carboxylase inhibitors” (Pfizer Inc., priority 2009, dated 2015) come the findings set out here.

Each structure is given as a SMILES string.

The target of assay [1] is T1, recombinant human ACC1 (rhACC1) (Homo sapiens, UniProt Q13085, DEL44-44).
T1 construct: recombinant baculovirus containing full length human ACC1 cDNA; made in house; host or cells: SF9 insect cells (baculovirus)
The assay is described as follows: recombinant hACC1 Transcreener assay (direct inhibition of ACC1 activity). The settings on record: Transcreener ADP detection FP assay, 50 μM ATP, 30 μM acetyl-CoA, 120 min at 25° C. It counts as biochemical. The method, then: For example direct inhibition of ACC activity, for the compound of Formula (1) was determined using preparations of recombinant human ACC1 (rhACC1) and recombinant human ACC2 (rhACC2). Representative sequences of the recombinant human ACC1 and ACC2 that can be used in the assay are provided in FIG. 1 (SEQ ID NO. 1) and FIG. 2 (SEQ. ID NO. 2), respectively. Preparation of rhACC1. Two liters of SF9 cells, infected with recombinant baculovirus containing full length human ACC1 cDNA, were suspended in ice-cold lysis buffer (25 mM Tris, pH 7.5; 150 mM NaCl; 10% glycerol; 5 mM imidazole (EMD Bioscience; Gibbstown, N.J.); 2 mM TCEP (BioVectra; Charlottetown, Canada); Benzonase nuclease (10000 U/100 g cell paste; Novagen; Madison, Wis.); EDTA-free protease inhibitor cocktail (1 tab/50 mL; Roche Diagnostics; Mannheim, Germany). Cells were lysed by 3 cycles of freeze-thaw and centrifuged at 40,000×g for 40 minutes (4° C.). Supernatant was directly loaded onto a HisTrap FF crude column (GE Healthcare; Piscataway, N.J.) and eluted with an imidazole gradient up to 0.5 M over 20 column volumes (CV). ACC1-containing fractions were pooled and diluted 1:5 with 25 mM Tris, pH 7.5, 2 mM TCEP, 10% glycerol and direct loaded onto a CaptoQ (GE Healthcare) column and eluted with an NaCl gradient up to 1 M over 20 CV's. Phosphate groups were removed from purified ACC1 by incubation with lambda phosphatase (100 U/10 μM target protein; New England Biolabs; Beverly, Mass.) for 14 hours at 4° C.; okadaic acid was added (1 μM final concentration; Roche Diagnostics) to inhibit the phosphatase. Purified ACC1 was exchanged into 25 mM Tris, pH 7.5, 2 mM TCEP, 10% glycerol, 0.5 M NaCl by 6 hour dialysis at 4° C. Aliquots were prepared and frozen at −80° C. […] The final conditions for the assay were 50 mM HEPES, pH 7.2, 10 mM MgCl2, 7.5 mM tripotassium citrate, 2 mM DTT, 0.1 mg/mL BSA, 30 μM acetyl-CoA, 50 μM ATP, and 10 mM KHCO3 Typically, a 10 μl reaction was run for 120 min at 25° C., and 10 μl of Transcreener stop and detect buffer was added and the combination incubated at room temp for an additional 1 hour. The data was acquired on a Envision Fluorescence reader (Perkinelmer) using a 620 excitation Cy5 FP general dual mirror, 620 excitation Cy5 FP filter, 688 emission (S) and a 688 (P) emission filter.

The target in assay [2] is T2, recombinant human ACC2 (rhACC2) (Homo sapiens, UniProt O00763, V2141I).
T2 construct: a full length Cytomax clone of ACC2 was purchased from Cambridge Bioscience Limited; made in house; host or cells: CHO cells (tetracycline-induced, pcDNA5 FRT TO-TOPO)
The assay is described as follows: recombinant hACC2 Transcreener assay (direct inhibition of ACC2 activity). In kind it is biochemical. The settings on record: Transcreener ADP detection FP assay, 50 μM ATP, 30 μM acetyl-CoA, 50 min at 25° C. The method, then:
For example direct inhibition of ACC activity, for the compound of Formula (1) was determined using preparations of recombinant human ACC1 (rhACC1) and recombinant human ACC2 (rhACC2). Representative sequences of the recombinant human ACC1 and ACC2 that can be used in the assay are provided in FIG. 1 (SEQ ID NO. 1) and FIG. 2 (SEQ. ID NO. 2), respectively.
[3] Preparation of rhACC2. Human ACC2 inhibition was measured using purified recombinant human ACC2 (hrACC2). Briefly, a full length Cytomax clone of ACC2 was purchased from Cambridge Bioscience Limited and was sequenced and subcloned into PcDNA5 FRT TO-TOPO (Invitrogen, Carlsbad, Calif.). The ACC2 was expressed in CHO cells by tetracycline induction and harvested in 5 liters of DMEM/F12 with glutamine, biotin, hygromycin and blasticidin with 1 μg/mL tetracycline (Invitrogen, Carlsbad, Calif.). The conditioned medium containing ACC2 was then applied to a Softlink Soft Release Avidin column (Promega, Madison, Wis.) and eluted with 5 mM biotin. 4 mgs of ACC2 were eluted at a concentration of 0.05 mg/mL (determined by A280) with an estimated purity of 95% ([…]). The purified ACC2 was dialyzed in 50 mM Tris, 200 mM NaCl, 4 mM DTT, 2 mM EDTA, and 5% glycerol. The pooled protein was frozen and stored at −80° C., with no loss of activity upon thawing. For measurement of ACC2 activity and assessment of ACC2 inhibition, test compounds were dissolved in DMSO and added to the rhACC2 enzyme as a 5× stock with a final DMSO concentration of 1%.
[4] Measurement of human ACC2 inhibition. hACC2 was assayed in a Costar #3676 (Costar, Cambridge, Mass.) 384-well plate using the Transcreener ADP detection FP assay kit (Bellbrook Labs, Madison, Wisconsin) using the manufacturer's recommended conditions for a 50 uM ATP reaction. The final conditions for the assay were 50 mM HEPES, pH 7.2, 5 mM MgCl2, 5 mM tripotassium citrate, 2 mM DTT, 0.1 mg/mL BSA, 30 μM acetyl-CoA, 50 μM ATP, and 8 mM KHCO3 Typically, a 10 μl reaction was run for 50 min at 25° C., and 10 μl of Transcreener stop and detect buffer was added and the combination incubated at room temp for an additional 1 hour. The data was acquired on an Envision Fluorescence reader (Perkinelmer) using a 620 excitation Cy5 FP general dual mirror, 620 excitation Cy5 FP filter, 688 emission (S) and a 688 (P) emission filter.

T2 sequence (O00763 whole entry V2141I): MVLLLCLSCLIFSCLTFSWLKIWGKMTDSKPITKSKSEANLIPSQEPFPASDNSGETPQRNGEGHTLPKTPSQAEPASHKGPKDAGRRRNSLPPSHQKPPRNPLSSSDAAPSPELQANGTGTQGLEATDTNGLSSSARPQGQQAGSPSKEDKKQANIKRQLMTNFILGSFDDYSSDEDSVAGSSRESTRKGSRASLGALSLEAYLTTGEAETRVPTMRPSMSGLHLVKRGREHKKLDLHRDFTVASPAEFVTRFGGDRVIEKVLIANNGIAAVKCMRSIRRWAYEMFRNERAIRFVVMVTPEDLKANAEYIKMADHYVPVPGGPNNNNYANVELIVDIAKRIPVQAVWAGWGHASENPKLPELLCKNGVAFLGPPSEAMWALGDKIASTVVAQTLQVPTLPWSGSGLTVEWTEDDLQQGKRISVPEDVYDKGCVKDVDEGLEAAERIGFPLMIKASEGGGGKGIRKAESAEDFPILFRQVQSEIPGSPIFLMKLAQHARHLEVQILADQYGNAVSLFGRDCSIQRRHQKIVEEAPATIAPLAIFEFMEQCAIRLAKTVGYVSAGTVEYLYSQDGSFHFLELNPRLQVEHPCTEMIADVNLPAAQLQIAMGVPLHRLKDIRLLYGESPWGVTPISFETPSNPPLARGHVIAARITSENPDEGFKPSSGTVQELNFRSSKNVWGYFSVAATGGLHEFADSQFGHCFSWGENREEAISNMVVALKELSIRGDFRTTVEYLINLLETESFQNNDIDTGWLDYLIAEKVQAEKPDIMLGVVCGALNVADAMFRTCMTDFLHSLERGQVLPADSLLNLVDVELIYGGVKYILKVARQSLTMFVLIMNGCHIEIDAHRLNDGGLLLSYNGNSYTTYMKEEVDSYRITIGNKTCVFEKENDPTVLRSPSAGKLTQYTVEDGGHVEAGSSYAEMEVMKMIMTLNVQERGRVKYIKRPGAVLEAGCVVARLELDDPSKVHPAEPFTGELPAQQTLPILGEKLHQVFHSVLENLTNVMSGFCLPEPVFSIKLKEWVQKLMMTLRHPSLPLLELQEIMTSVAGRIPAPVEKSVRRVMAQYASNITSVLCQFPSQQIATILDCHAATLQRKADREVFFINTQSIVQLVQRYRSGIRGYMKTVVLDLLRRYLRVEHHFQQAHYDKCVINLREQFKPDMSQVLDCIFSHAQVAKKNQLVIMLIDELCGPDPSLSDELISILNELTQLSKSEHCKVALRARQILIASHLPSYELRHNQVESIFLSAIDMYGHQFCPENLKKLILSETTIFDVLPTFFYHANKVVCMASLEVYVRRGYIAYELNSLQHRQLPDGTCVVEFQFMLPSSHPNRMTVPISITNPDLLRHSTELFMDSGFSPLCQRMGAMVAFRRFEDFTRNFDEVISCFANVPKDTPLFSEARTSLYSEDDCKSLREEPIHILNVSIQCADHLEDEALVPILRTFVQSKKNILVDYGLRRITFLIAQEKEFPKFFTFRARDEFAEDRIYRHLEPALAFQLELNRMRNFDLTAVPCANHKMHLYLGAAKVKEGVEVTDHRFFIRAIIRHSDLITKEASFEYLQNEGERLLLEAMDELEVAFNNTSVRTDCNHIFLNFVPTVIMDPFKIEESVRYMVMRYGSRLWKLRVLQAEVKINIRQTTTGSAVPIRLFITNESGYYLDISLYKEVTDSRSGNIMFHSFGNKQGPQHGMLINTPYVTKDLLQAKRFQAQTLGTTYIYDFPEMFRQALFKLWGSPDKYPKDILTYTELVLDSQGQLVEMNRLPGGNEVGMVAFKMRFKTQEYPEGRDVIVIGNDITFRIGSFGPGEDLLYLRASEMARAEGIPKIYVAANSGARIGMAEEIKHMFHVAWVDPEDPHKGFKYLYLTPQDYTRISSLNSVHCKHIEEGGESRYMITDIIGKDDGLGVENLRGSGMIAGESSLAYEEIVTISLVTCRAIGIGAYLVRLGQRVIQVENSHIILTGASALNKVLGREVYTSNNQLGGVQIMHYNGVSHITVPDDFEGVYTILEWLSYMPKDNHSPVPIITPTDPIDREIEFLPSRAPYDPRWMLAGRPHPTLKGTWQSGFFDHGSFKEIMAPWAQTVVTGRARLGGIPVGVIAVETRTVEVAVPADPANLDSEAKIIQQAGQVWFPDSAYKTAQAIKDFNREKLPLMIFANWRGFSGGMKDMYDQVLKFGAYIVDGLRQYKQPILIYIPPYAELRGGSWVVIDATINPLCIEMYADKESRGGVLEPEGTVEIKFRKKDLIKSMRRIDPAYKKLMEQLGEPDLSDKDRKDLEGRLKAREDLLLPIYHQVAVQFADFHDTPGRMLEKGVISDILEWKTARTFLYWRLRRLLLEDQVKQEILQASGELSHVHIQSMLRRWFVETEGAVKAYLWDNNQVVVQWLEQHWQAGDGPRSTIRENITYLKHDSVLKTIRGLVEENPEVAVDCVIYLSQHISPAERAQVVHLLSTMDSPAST

For `CCCn1ncc2c1C(=O)CC1(CCN(C(=O)c3ccc(Cl)c(C)c3)CC1)C2` [Example 2A-9], the IC50 worked out at 4260 nM in assay [1] and 1850 nM in assay [2].
Regarding `CC(C)n1ncc2c1C(=O)CC1(CCN(C(=O)c3c(O)cnc4ccccc34)CC1)C2` [Example 2A-70], the IC50 in assay [1] worked out at 9790 nM; in assay [2], 3760 nM.
On to `CC(C)(C)n1ncc2c1C(=O)CC1(CCN(C(=O)c3nc4ccccc4nc3N)CC1)C2` [Example 2A-39], for which the IC50 in assay [1] is 527 nM; in assay [2], 122 nM.
Regarding `CC(C)(C)n1ncc2c1C(=O)CC1(CCN(C(=O)c3cccnc3C(N)=O)CC1)C2` [Example 11A-11], the IC50 in assay [1] was 10600 nM; in assay [2], 1450 nM.
The corresponding values for `CC(C)(C)n1ncc2c1C(=O)CC1(CCN(C(=O)c3cc(F)c4[nH]ncc4c3)CC1)C2` [Example 2A-44] are 106 nM and 30.2 nM.
On the same counts, the results for `CC(C)n1ncc2c1C(=O)CC1(CCN(C(=O)c3c[nH]c4ncccc34)CC1)C2` [Example 2A-71] are 1060 nM and 387 nM.
For `CC(C)n1ncc2c1C(=O)CC1(CCN(C(=O)c3cccc(-c4ncc[nH]4)c3)CC1)C2` [Example 11A-41], the IC50 is 122 nM in assay [1] and 30.1 nM in assay [2].
Regarding `CC(C)n1ncc2c1C(=O)CC1(CCN(C(=O)c3ccc4cn[nH]c4c3)CC1)C2` [Example 2A-68], the results for the IC50 in assay [1] and in assay [2] were 68.4 nM and 51.2 nM, respectively.
On the same counts, the results for `CC(C)(C)n1ncc2c1C(=O)CC1(CCN(C(=O)c3ccc4[nH]c(=O)[nH]c4c3)CC1)C2` [Example 2A-29] are 24.1 nM and 9.81 nM.
On the same counts, the results for `Cc1nn(C(C)C)c2c1CC1(CCN(C(=O)c3ccc4[nH]ncc4c3)CC1)CC2=O` [Example 2A-75] are 113 nM and 37.7 nM.
Turning to `CNc1nc(C)ccc1C(=O)N1CCC2(CC1)CC(=O)c1c(cnn1C(C)C)C2` [Example 11A-46], the figures for the IC50 in assay [1] and in assay [2] were 391 nM and 97.1 nM, respectively.
The corresponding values for `CC(C)n1ncc2c1C(=O)CC1(CCN(C(=O)c3ccc4ncccc4c3O)CC1)C2` [Example 2A-69] are 122 nM and 42.9 nM.
On the same counts, the results for `CC(C)(C)n1nc(C#N)c2c1C(=O)CC1(CCN(C(=O)c3ccc4[nH]ncc4c3)CC1)C2` [Example 2A-77] are 6160 nM and 1300 nM.
The corresponding values for `Cc1cc(C(=O)N2CCC3(CC2)CC(=O)c2c(cnn2C2CCC2)C3)ccc1Cl` [Example 1A-3] are 646 nM and 155 nM.
Take `CC(C)(C)n1ncc2c1C(=O)CC1(CCN(C(=O)c3ccn4ccnc4c3)CC1)C2` [Example 11A-67]: the IC50 in assay [1] was found to be 203 nM; in assay [2] it was 139 nM.
The corresponding values for `CC(C)(C)n1ncc2c1C(=O)CC1(CCN(C(=O)c3cnc(-c4ccccn4)[nH]3)CC1)C2` [Example 11A-50] are 581 nM and 371 nM.
On the same counts, the results for `Cc1cccn2cc(C(=O)N3CCC4(CC3)CC(=O)c3c(cnn3C(C)C)C4)nc12` [Example 11A-14] are 418 nM and 253 nM.
The corresponding values for `Cn1c(=O)[nH]c2cc(C(=O)N3CCC4(CC3)CC(=O)c3c(cnn3C(C)(C)C)C4)ccc21` [Example 2A-45] are 73.7 nM and 32.9 nM.
Consider `CC(C)n1ncc2c1C(=O)CC1(CCN(C(=O)c3cn4ccccc4n3)CC1)C2` [Example 11A-28], for which the values for the IC50 in assay [1] and in assay [2] were 917 nM and 391 nM, respectively.
The corresponding values for `Cn1ncc2c(N)c(C(=O)N3CCC4(CC3)CC(=O)c3c(cnn3C(C)(C)C)C4)cnc21` [Example 2A-59] are 115 nM and 69.2 nM.
On to `Cc1cc(C(=O)N2CCC3(CC2)CC(=O)c2c(cnn2C(C)(C)C)C3)c(N)c(C)n1` [Example 11A-38], for which the figures for the IC50 in assay [1] and in assay [2] were 2170 nM and 1030 nM, respectively.
The corresponding values for `CC(C)n1ncc2c1C(=O)CC1(CCN(C(=O)c3cnc4cc[nH]c4c3)CC1)C2` [Example 2A-19] are 57.4 nM and 22.1 nM.
On the same counts, the results for `Cc1cc(C(=O)N2CCC3(CC2)CC(=O)c2c(cnn2C(C)c2ccccc2)C3)ccc1Cl` (stereo not drawn) [Example 2A-6] are 640 nM and 88.8 nM.
For the molecule `CC(C)n1ncc2c1C(=O)CC1(CCN(C(=O)c3cc4ncccc4[nH]3)CC1)C2` [Example 11A-48], the IC50 in assay [1] amounted to 78.9 nM; in assay [2], 41.2 nM.
The corresponding values for `Cc1cc(C(=O)N2CCC3(CC2)CC(=O)c2c(cnn2C(C)(C)C)C3)n(-c2cccnc2)n1` [Example 11A-5] are 16400 nM and 13200 nM.
In the case of `CC(C)n1ncc2c1C(=O)CC1(CCN(C(=O)c3ccc4c(c3)[nH]c(=O)n4C)CC1)C2` [Example 2A-46], the IC50 in assay [1] turned out to be 167 nM; in assay [2] it was 29.5 nM.
Turning to `CC(C)n1ncc2c1C(=O)CC1(CCN(C(=O)c3cnc4[nH]cnc4c3)CC1)C2` [Example 11A-33], the results for the IC50 in assay [1] and in assay [2] were 272 nM and 93.1 nM, respectively.
The corresponding values for `CC(C)n1ncc2c1C(=O)CC1(CCN(C(=O)c3cnc(-c4ccccn4)[nH]3)CC1)C2` [Example 11A-37] are 1030 nM and 463 nM.
The corresponding values for `Cc1noc(-c2cc(C(=O)N3CCC4(CC3)CC(=O)c3c(cnn3C(C)C)C4)ccn2)n1` [Example 2A-60] are 8240 nM and 3990 nM.
As for `Cc1ccc(O)c(C(=O)N2CCC3(CC2)CC(=O)c2c(cnn2C(C)C)C3)n1` [Example 11A-49], the IC50 in assay [1] is 13500 nM; in assay [2], 4910 nM.
The corresponding values for `Cc1cc(C(=O)N2CCC3(CC2)CC(=O)c2c(cnn2CC2CCCO2)C3)ccc1Cl` (stereo not drawn) [Example 2A-2] are 8300 nM and 3570 nM.
Consider `Cc1cc(C(=O)N2CCC3(CC2)CC(=O)c2c(cnn2Cc2ccccc2)C3)ccc1Cl` [Example 1A-4], for which the IC50 in assay [1] turned out to be 2980 nM; in assay [2] it was 719 nM.
As to `CC(C)n1ncc2c1C(=O)CC1(CCN(C(=O)c3ccc4[nH]ncc4c3)CC1)C2` [Example 10A-1, 1′-(1H-indazole-5-carbonyl)-1-isopropyl-4,6-dihydrospiro[indazole-5,4′-piperidin]-7(1H)-one], the IC50 in assay [1] is 43.8 nM; in assay [2], 22.3 nM.
